Data from article PMC11921695 (BMC Cancer, 2025).

Test system: patients with HIV-associated KS

Question: How did the “grade 3 ARs, all rash acneiform” value (75 mg bd selumetinib) turn out when Cn1cnc2c(F)c(Nc3ccc(Br)cc3Cl)c(C(=O)NOCCO)cc21 [selumetinib, 6-(4-Bromo-2-chloro-phenylamino)-7-fluro-3-methyl-3 H-benzoimidazole-5-carboxylic acid (2-hydroxy-ethoxy)-amide hydrogen sulphate] was run?
Answer: The value was “three”.

Question: And the “patients who experienced at least one adverse event (AE)” value (16 treated patients)?
Answer: The value was 16.

Question: And the “ALT Increased: Number of AEs reported” value (CTCAE Grade ≤2)?
Answer: The value was 13.

Question: And the “AST Increased: Number of AEs reported” value (CTCAE Grade ≤2)?
Answer: The value was 11.

Question: What about the “Albumin Decreased: Number of AEs reported” value (CTCAE Grade ≤2) of the same molecule?
Answer: Its value is 12.

Question: What about the “CPK Increased: Number of AEs reported” value (CTCAE Grade ≤2) of the same molecule?
Answer: Its value is 14.

Question: What about the “Fatigue: Number of AEs reported” value (CTCAE Grade ≤2) of the same molecule?
Answer: Its value is 10.

Question: And the “Nausea: Number of AEs reported” value (CTCAE Grade ≤2)?
Answer: Its value is 11.

Question: And the “Red Blood Cell Count Decreased: Number of AEs reported” value (CTCAE Grade ≤2)?
Answer: The value was 22.

Question: And the “Vomiting: Number of AEs reported” value (CTCAE Grade ≤2)?
Answer: Its value is 11.

Question: What about the “Blood and lymphatic system disorders: Adverse Events Grade 1 E” value (E = events, any dose) of the same molecule?
Answer: Its value is 5.

Question: And the “Blood and lymphatic system disorders: Adverse Events Grade 2 E” value (E = events, any dose)?
Answer: The value was 1.

Question: And the “Blood and lymphatic system disorders: Adverse Events Grade3 E” value (E = events, any dose)?
Answer: The value was 0.

Question: What about the “Blood and lymphatic system disorders: Adverse Reactions Grade 1 E” value (E = events, any dose) of the same molecule?
Answer: The value was 4.

Question: And the “Blood and lymphatic system disorders: Adverse Reactions Grade 2 E” value (E = events, any dose)?
Answer: Its value is 1.

Question: What about the “Blood and lymphatic system disorders: Adverse Reactions Grade 3 E” value (E = events, any dose) of the same molecule?
Answer: The value was 0.

Question: What about the “Cardiac disorders: Adverse Events Grade 1 E” value (E = events, any dose) of the same molecule?
Answer: Its value is 1.

Question: And the “Cardiac disorders: Adverse Events Grade 2 E” value (E = events, any dose)?
Answer: The value was 0.

Question: And the “Cardiac disorders: Adverse Events Grade3 E” value (E = events, any dose)?
Answer: The value was 0.

Question: What about the “Cardiac disorders: Adverse Reactions Grade 1 E” value (E = events, any dose) of the same molecule?
Answer: The value was 0.

Question: And the “Cardiac disorders: Adverse Reactions Grade 2 E” value (E = events, any dose)?
Answer: The value was 0.

Question: And the “Cardiac disorders: Adverse Reactions Grade 3 E” value (E = events, any dose)?
Answer: The value was 0.

Question: And the “Eye disorders: Adverse Events Grade 1 E” value (E = events, any dose)?
Answer: Its value is 9.

Question: What about the “Eye disorders: Adverse Events Grade 2 E” value (E = events, any dose) of the same molecule?
Answer: The value was 3.

Question: What about the “Eye disorders: Adverse Events Grade3 E” value (E = events, any dose) of the same molecule?
Answer: Its value is 0.

Question: What about the “Eye disorders: Adverse Reactions Grade 1 E” value (E = events, any dose) of the same molecule?
Answer: Its value is 6.

Question: And the “Eye disorders: Adverse Reactions Grade 2 E” value (E = events, any dose)?
Answer: Its value is 3.

Question: What about the “Eye disorders: Adverse Reactions Grade 3 E” value (E = events, any dose) of the same molecule?
Answer: Its value is 0.

Question: What about the “Gastrointestinal disorders: Adverse Events Grade 1 E” value (E = events, any dose) of the same molecule?
Answer: The value was 47.

Question: What about the “Gastrointestinal disorders: Adverse Events Grade 2 E” value (E = events, any dose) of the same molecule?
Answer: The value was 13.

Question: And the “Gastrointestinal disorders: Adverse Events Grade3 E” value (E = events, any dose)?
Answer: The value was 0.

Question: What about the “Gastrointestinal disorders: Adverse Reactions Grade 1 E” value (E = events, any dose) of the same molecule?
Answer: The value was 44.

Question: What about the “Gastrointestinal disorders: Adverse Reactions Grade 2 E” value (E = events, any dose) of the same molecule?
Answer: Its value is 9.

Question: And the “Gastrointestinal disorders: Adverse Reactions Grade 3 E” value (E = events, any dose)?
Answer: Its value is 0.

Question: What about the “General disorders and administration site conditions: Adverse Events Grade 1 E” value (E = events, any dose) of the same molecule?
Answer: The value was 33.

Question: What about the “General disorders and administration site conditions: Adverse Events Grade 2 E” value (E = events, any dose) of the same molecule?
Answer: Its value is 5.

Question: What about the “General disorders and administration site conditions: Adverse Events Grade3 E” value (E = events, any dose) of the same molecule?
Answer: Its value is 1.

Question: What about the “General disorders and administration site conditions: Adverse Reactions Grade 1 E” value (E = events, any dose) of the same molecule?
Answer: Its value is 23.

Question: What about the “General disorders and administration site conditions: Adverse Reactions Grade 2 E” value (E = events, any dose) of the same molecule?
Answer: Its value is 2.

Question: What about the “General disorders and administration site conditions: Adverse Reactions Grade 3 E” value (E = events, any dose) of the same molecule?
Answer: Its value is 0.

Question: And the “Infections and infestations: Adverse Events Grade 1 E” value (E = events, any dose)?
Answer: The value was 2.

Question: And the “Infections and infestations: Adverse Events Grade 2 E” value (E = events, any dose)?
Answer: The value was 6.

Question: What about the “Infections and infestations: Adverse Events Grade3 E” value (E = events, any dose) of the same molecule?
Answer: Its value is 0.

Question: What about the “Infections and infestations: Adverse Reactions Grade 1 E” value (E = events, any dose) of the same molecule?
Answer: The value was 1.

Question: What about the “Infections and infestations: Adverse Reactions Grade 2 E” value (E = events, any dose) of the same molecule?
Answer: The value was 4.

Question: And the “Infections and infestations: Adverse Reactions Grade 3 E” value (E = events, any dose)?
Answer: Its value is 0.

Question: And the “Injury, poisoning and procedural complications: Adverse Events Grade 1 E” value (E = events, any dose)?
Answer: Its value is 2.

Question: What about the “Injury, poisoning and procedural complications: Adverse Events Grade 2 E” value (E = events, any dose) of the same molecule?
Answer: The value was 3.

Question: What about the “Injury, poisoning and procedural complications: Adverse Events Grade3 E” value (E = events, any dose) of the same molecule?
Answer: Its value is 0.

Question: And the “Injury, poisoning and procedural complications: Adverse Reactions Grade 1 E” value (E = events, any dose)?
Answer: Its value is 0.

Question: And the “Injury, poisoning and procedural complications: Adverse Reactions Grade 2 E” value (E = events, any dose)?
Answer: The value was 0.

Question: And the “Injury, poisoning and procedural complications: Adverse Reactions Grade 3 E” value (E = events, any dose)?
Answer: Its value is 0.

Question: And the “Investigations: Adverse Events Grade 1 E” value (E = events, any dose)?
Answer: Its value is 133.

Question: And the “Investigations: Adverse Events Grade 2 E” value (E = events, any dose)?
Answer: The value was 7.

Question: And the “Investigations: Adverse Events Grade3 E” value (E = events, any dose)?
Answer: Its value is 2.

Question: And the “Investigations: Adverse Reactions Grade 1 E” value (E = events, any dose)?
Answer: The value was 81.

Question: What about the “Investigations: Adverse Reactions Grade 2 E” value (E = events, any dose) of the same molecule?
Answer: Its value is 6.

Question: What about the “Investigations: Adverse Reactions Grade 3 E” value (E = events, any dose) of the same molecule?
Answer: The value was 0.

Question: What about the “Metabolism and nutrition disorders: Adverse Events Grade 1 E” value (E = events, any dose) of the same molecule?
Answer: Its value is 13.

Question: And the “Metabolism and nutrition disorders: Adverse Events Grade 2 E” value (E = events, any dose)?
Answer: Its value is 0.

Question: And the “Metabolism and nutrition disorders: Adverse Events Grade3 E” value (E = events, any dose)?
Answer: The value was 0.

Question: And the “Metabolism and nutrition disorders: Adverse Reactions Grade 1 E” value (E = events, any dose)?
Answer: The value was 9.

Question: And the “Metabolism and nutrition disorders: Adverse Reactions Grade 2 E” value (E = events, any dose)?
Answer: The value was 0.

Question: What about the “Metabolism and nutrition disorders: Adverse Reactions Grade 3 E” value (E = events, any dose) of the same molecule?
Answer: The value was 0.

Question: And the “Musculoskeletal and connective tissue disorders: Adverse Events Grade 1 E” value (E = events, any dose)?
Answer: Its value is 4.

Question: And the “Musculoskeletal and connective tissue disorders: Adverse Events Grade 2 E” value (E = events, any dose)?
Answer: The value was 0.

Question: And the “Musculoskeletal and connective tissue disorders: Adverse Events Grade3 E” value (E = events, any dose)?
Answer: Its value is 0.

Question: What about the “Musculoskeletal and connective tissue disorders: Adverse Reactions Grade 1 E” value (E = events, any dose) of the same molecule?
Answer: Its value is 2.

Question: What about the “Musculoskeletal and connective tissue disorders: Adverse Reactions Grade 2 E” value (E = events, any dose) of the same molecule?
Answer: The value was 0.

Question: And the “Musculoskeletal and connective tissue disorders: Adverse Reactions Grade 3 E” value (E = events, any dose)?
Answer: Its value is 0.

Question: And the “Nervous system disorders: Adverse Events Grade 1 E” value (E = events, any dose)?
Answer: Its value is 7.

Question: What about the “Nervous system disorders: Adverse Events Grade 2 E” value (E = events, any dose) of the same molecule?
Answer: The value was 0.

Question: What about the “Nervous system disorders: Adverse Events Grade3 E” value (E = events, any dose) of the same molecule?
Answer: The value was 0.

Question: What about the “Nervous system disorders: Adverse Reactions Grade 1 E” value (E = events, any dose) of the same molecule?
Answer: Its value is 5.

Question: What about the “Nervous system disorders: Adverse Reactions Grade 2 E” value (E = events, any dose) of the same molecule?
Answer: Its value is 0.

Question: And the “Nervous system disorders: Adverse Reactions Grade 3 E” value (E = events, any dose)?
Answer: Its value is 0.

Question: What about the “Psychiatric disorders: Adverse Events Grade 1 E” value (E = events, any dose) of the same molecule?
Answer: Its value is 3.

Question: And the “Psychiatric disorders: Adverse Events Grade 2 E” value (E = events, any dose)?
Answer: The value was 0.

Question: What about the “Psychiatric disorders: Adverse Events Grade3 E” value (E = events, any dose) of the same molecule?
Answer: Its value is 0.

Question: What about the “Psychiatric disorders: Adverse Reactions Grade 1 E” value (E = events, any dose) of the same molecule?
Answer: The value was 3.

Question: And the “Psychiatric disorders: Adverse Reactions Grade 2 E” value (E = events, any dose)?
Answer: The value was 0.

Question: And the “Psychiatric disorders: Adverse Reactions Grade 3 E” value (E = events, any dose)?
Answer: The value was 0.

Question: What about the “Renal and urinary disorders: Adverse Events Grade 1 E” value (E = events, any dose) of the same molecule?
Answer: The value was 2.

Question: And the “Renal and urinary disorders: Adverse Events Grade 2 E” value (E = events, any dose)?
Answer: The value was 0.

Question: And the “Renal and urinary disorders: Adverse Events Grade3 E” value (E = events, any dose)?
Answer: The value was 0.

Question: What about the “Renal and urinary disorders: Adverse Reactions Grade 1 E” value (E = events, any dose) of the same molecule?
Answer: The value was 1.

Question: And the “Renal and urinary disorders: Adverse Reactions Grade 2 E” value (E = events, any dose)?
Answer: Its value is 0.

Question: What about the “Renal and urinary disorders: Adverse Reactions Grade 3 E” value (E = events, any dose) of the same molecule?
Answer: Its value is 0.

Question: And the “Respiratory, thoracic and mediastinal disorders: Adverse Events Grade 1 E” value (E = events, any dose)?
Answer: Its value is 11.

Question: And the “Respiratory, thoracic and mediastinal disorders: Adverse Events Grade 2 E” value (E = events, any dose)?
Answer: Its value is 2.

Question: And the “Respiratory, thoracic and mediastinal disorders: Adverse Events Grade3 E” value (E = events, any dose)?
Answer: Its value is 0.

Question: What about the “Respiratory, thoracic and mediastinal disorders: Adverse Reactions Grade 1 E” value (E = events, any dose) of the same molecule?
Answer: The value was 5.

Question: And the “Respiratory, thoracic and mediastinal disorders: Adverse Reactions Grade 2 E” value (E = events, any dose)?
Answer: The value was 1.

Question: What about the “Respiratory, thoracic and mediastinal disorders: Adverse Reactions Grade 3 E” value (E = events, any dose) of the same molecule?
Answer: The value was 0.

Question: And the “Skin and subcutaneous tissue disorders: Adverse Events Grade 1 E” value (E = events, any dose)?
Answer: Its value is 29.

Question: What about the “Skin and subcutaneous tissue disorders: Adverse Events Grade 2 E” value (E = events, any dose) of the same molecule?
Answer: The value was 17.

Question: What about the “Skin and subcutaneous tissue disorders: Adverse Events Grade3 E” value (E = events, any dose) of the same molecule?
Answer: The value was 3.

Question: And the “Skin and subcutaneous tissue disorders: Adverse Reactions Grade 1 E” value (E = events, any dose)?
Answer: Its value is 24.

Question: What about the “Skin and subcutaneous tissue disorders: Adverse Reactions Grade 2 E” value (E = events, any dose) of the same molecule?
Answer: Its value is 16.

Question: What about the “Skin and subcutaneous tissue disorders: Adverse Reactions Grade 3 E” value (E = events, any dose) of the same molecule?
Answer: Its value is 3.

Question: And the “Vascular disorders: Adverse Events Grade 1 E” value (E = events, any dose)?
Answer: The value was 2.

Question: And the “Vascular disorders: Adverse Events Grade 2 E” value (E = events, any dose)?
Answer: The value was 0.

Question: And the “Vascular disorders: Adverse Events Grade3 E” value (E = events, any dose)?
Answer: The value was 0.

Question: And the “Vascular disorders: Adverse Reactions Grade 1 E” value (E = events, any dose)?
Answer: Its value is 0.

Question: What about the “Vascular disorders: Adverse Reactions Grade 2 E” value (E = events, any dose) of the same molecule?
Answer: The value was 0.

Question: What about the “Vascular disorders: Adverse Reactions Grade 3 E” value (E = events, any dose) of the same molecule?
Answer: Its value is 0.

Question: What about the “Blood and lymphatic system disorders: Adverse Events Grade 1 N” value (N = patients, any dose) of the same molecule?
Answer: The value was 4.

Question: And the “Blood and lymphatic system disorders: Adverse Events Grade 2 N” value (N = patients, any dose)?
Answer: Its value is 1.
